From patent US20240108684A1, “DOSING REGIMENS FOR TREATMENT OF FUNGAL INFECTIONS” (priority 2016, published 2024)
Values after ≈ are worked out from the molar mass of the structure shown. Read-outs that look alike come from different tables or passages of the source. *1 amine or outer side, *2 acyl side, *3 side chain or, on linkers, in order; H or OH if unused. Where a SMILES comes first, the peptide text is derived from it. Bridges are numbered along the chain shown (N, C = ends). [ ]: non-standard residue; d: D form. The star is where a group is joined. hTyr(3S-OH,4S-OH,3'-OSO3H) = N[C@H](C(=O)O)[C@H](O)[C@@H](O)c1ccc(O)c(OS(=O)(=O)O)c1; Orn(4R-OH,5R-OH) = O=C([C@H](C[C@@H](O)[C@@H](O)N[*:3])N[*:1])[*:2]; Pro(3S-OH,4S-Me) = C[C@H]1CN[C@H](C(=O)O)[C@H]1O; X1 = CCCCCOc1ccc(-c2cc(-c3ccc(C(=O)*)cc3)no2)cc1; Gln(3R-OH) = NC(=O)C[C@@H](O)[C@H](N)C(=O)O; Hyp = O=C(O)[C@@H]1C[C@@H](O)CN1

Experiments:
[1] = test system: C. albicans (R357); experiment: Disseminated infection model with C. albicans R357, kidney fungal counts; type: in vivo, ICR mice
[2] = test system: azole-resistant C. albicans R357 strain; experiment: MIC and CLSI susceptibility, azole-resistant C. albicans R357; type: cell-based, Candida albicans; conditions: for Susceptibility of strain R357 in words: C. albicans R357 isolated from human blood
[3] = test system: Aspergillus fumigatus (ATCC 13073); experiment: Neutropenic mouse model of aspergillosis, survival; type: in vivo, mice; conditions: 2 mg/kg IP one dose; 10 days; P<0.05
[4] = test system: C. auris isolates; experiment: Candida auris antifungal susceptibility testing (AFST), CLSI M27-A3; type: cell-based
[5] = Solubility of test articles in vehicle, visual observation; conditions: WFI; 2 mg/mL
Description: Amphotericin B and fluconazole were in powder form. Amphotericin B was dissolved in 0.9% NaCl. Fluconazole was dissolved in water (WFI: water for injection).

SMILES	Susceptibility (CLSI) ([2]; C. albicans R357)	Susceptibility of strain R357 in words [2]	Number of resistant C. auris isolates ([4]; of 38 isolates)	MIC ([2]; Candida albicans)	further results
C[C@@H]1[C@H](O)[C@@H](C)/C=C/C=C/C=C/C=C/C=C/C=C/C=C/[C@H](O[C@@H]2O[C@H](C)[C@@H](O)[C@H](N)[C@@H]2O)C[C@@H]2O[C@](O)(C[C@@H](O)C[C@@H](O)[C@H](O)CC[C@@H](O)C[C@@H](O)CC(=O)O[C@H]1C)C[C@H](O)[C@H]2C(=O)O [Amphotericin B, amphotericin B]	S	susceptible			Reduction in fungal counts ([1]; 3 mg/kg IV, 72 hr): two log reduction; Antimicrobial effect versus vehicle (kidney fungal counts) ([1]; 1 and 3 mg/kg IV once, 48 and 72 hr after infection): Significant effects; MIC ([2]; C. albicans R357, endpoint 100% inhibition): 0.5 µg/mL (≈ 0.541 µM); Survival versus vehicle [3]: significantly longer survival than vehicle
CC[C@H](C)C[C@H](C)CCCCCCCCC(=O)N[C@H]1C[C@@H](O)[C@@H](NCCN)NC(=O)[C@@H]2[C@@H](O)CCN2C(=O)[C@H]([C@H](O)CCN)NC(=O)[C@H]([C@H](O)[C@@H](O)c2ccc(O)cc2)NC(=O)[C@@H]2C[C@@H](O)CN2C(=O)[C@H]([C@@H](C)O)NC1=O [Caspofungin, caspofungin]	S		4		MIC ([2]; Candida albicans, C. albicans R357, endpoint 50% inhibition, read-out: MIC): 0.25 µg/mL (≈ 0.229 µM); Breakthrough at 48 h ([4]; C. auris strains): most strains breakthrough
OC(Cn1cncn1)(Cn1cncn1)c1ccc(F)cc1F [Fluconazole, fluconazole]	R	resistant	38	> 64 µg/mL	Reduction in colony counts compared to vehicle ([1]; 20 mg/kg PO, 48 hr after infection): 51%; Reduction in colony counts compared to vehicle ([1]; 20 mg/kg PO, 72 hr after infection): 84%; Statistical significance of reduction versus vehicle ([1]; 20 mg/kg PO, one-way ANOVA, Dunnett's test (P>0.05)): not significant; Solubility [5]: S
CCCCCOc1ccc(-c2cc(-c3ccc(C(=O)N[C@H]4C[C@@H](O)[C@@H](O)NC(=O)[C@@H]5[C@@H](O)[C@@H](C)CN5C(=O)[C@H]([C@H](O)CC(N)=O)NC(=O)[C@H]([C@H](O)[C@@H](O)c5ccc(O)c(OS(=O)(=O)O)c5)NC(=O)[C@@H]5C[C@@H](O)CN5C(=O)[C@H]([C@@H](C)O)NC4=O)cc3)no2)cc1 [MICA, micafungin] (X1-[Orn(4R-OH,5R-OH)]T[Hyp][hTyr(3S-OH,4S-OH,3'-OSO3H)][Gln(3R-OH)][Pro(3S-OH,4S-Me)]; lactam 1-C)					Number of resistant C. auris isolates [4]: 4
CC[C@@H]([C@H](C)O)n1ncn(-c2ccc(N3CCN(c4ccc(OC[C@@H]5CO[C@@](Cn6cncn6)(c6ccc(F)cc6F)C5)cc4)CC3)cc2)c1=O [Posaconazole, posaconazole]		resistant		> 64 µg/mL	
C[C@@H](c1ncncc1F)[C@](O)(Cn1cncn1)c1ccc(F)cc1F [Voriconazole, voriconazole]	R	resistant		> 64 µg/mL	
